IC50 data for seven compounds are collected here from ChEMBL document CHEMBL1126241, “Synthesis, characterization, and Ca2+ antagonistic activity of diltiazem metabolites” (J Med Chem, 1992).

For the assay, the system named is Cricetinae gen. sp. Nature of the assay: Concentration (10 e-6 M) required to block [Ca2+]-induced contraction of K+-depolarized hamster aorta. The class given is functional.
Usually IC50 stands for the point on the concentration scale where inhibition reaches its midpoint. As for `CNCCN1C(=O)C(OC(C)=O)C(c2ccc(O)cc2)Sc2ccccc21` (configuration not stated), the concentration for half-maximal inhibition (IC50) turned out to be 112 µM.
For the compound `COc1ccc([C@@H]2Sc3ccccc3N(CCN(C)C)C(=O)[C@@H]2OC(C)=O)cc1` [DILTIAZEM], half-maximal inhibition (IC50) required 0.98 µM.
In the case of `CC(=O)OC1C(=O)N(CCN(C)C)c2ccccc2SC1c1ccc(O)cc1` (configuration not stated), half-maximal inhibition (IC50) was put at 40.4 µM.
Next, `CNCCN1C(=O)C(O)C(c2ccc(OC)cc2)Sc2ccccc21` (configuration not stated): 20.2 µM; `CNCCN1C(=O)C(O)C(c2ccc(O)cc2)Sc2ccccc21` (configuration not stated): 127 µM; `CN(C)CCN1C(=O)C(O)C(c2ccc(O)cc2)Sc2ccccc21` (configuration not stated): 45.5 µM.
`CNCCN1C(=O)C(OC(C)=O)C(c2ccc(OC)cc2)Sc2ccccc21` (configuration not stated) had an IC50 of 3.27 µM.
